According to article PMC4329833 (Journal of Medicinal Chemistry, 2014):
Each block holds one molecule with its values, some of them ahead of it.

Legend:
rat nNOS [1] = target: T1, rat nNOS (Rattus norvegicus, UniProt P29476); experiment: biochemical
rat nNOS [2] = target: T1, rat nNOS; conditions: ratio of respective Ki values (eNOS vs rnNOS)
CYP2C19 = CYP2C19 (Homo sapiens, UniProt P33261); experiment: CYP inhibition assay in human liver microsomes; format: in vitro ADME; conditions: 10 μM
serotonin 5-HT2A = serotonin 5-HT2A (Homo sapiens, UniProt P28223); experiment: NIMH PDSP CNS receptor radioligand binding
Sequence of serotonin 5-HT2A (P28223 whole entry): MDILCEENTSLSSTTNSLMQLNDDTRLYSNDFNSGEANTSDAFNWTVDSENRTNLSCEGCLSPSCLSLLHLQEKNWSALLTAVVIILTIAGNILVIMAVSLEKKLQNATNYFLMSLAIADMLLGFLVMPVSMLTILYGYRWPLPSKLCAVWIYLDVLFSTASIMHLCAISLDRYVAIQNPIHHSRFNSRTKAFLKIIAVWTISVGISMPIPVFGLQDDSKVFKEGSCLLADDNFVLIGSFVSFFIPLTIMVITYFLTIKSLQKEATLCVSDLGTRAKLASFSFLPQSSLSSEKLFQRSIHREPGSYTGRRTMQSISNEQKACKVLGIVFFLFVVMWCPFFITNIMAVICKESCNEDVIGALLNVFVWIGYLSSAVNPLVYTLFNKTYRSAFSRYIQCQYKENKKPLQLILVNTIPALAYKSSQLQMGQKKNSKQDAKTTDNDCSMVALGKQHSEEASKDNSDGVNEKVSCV

serotonin 5-HT1A = target: T2, serotonin 5-HT1A (Homo sapiens, UniProt P08908); experiment: NIMH PDSP CNS receptor radioligand binding
T2 sequence (P08908 1-422): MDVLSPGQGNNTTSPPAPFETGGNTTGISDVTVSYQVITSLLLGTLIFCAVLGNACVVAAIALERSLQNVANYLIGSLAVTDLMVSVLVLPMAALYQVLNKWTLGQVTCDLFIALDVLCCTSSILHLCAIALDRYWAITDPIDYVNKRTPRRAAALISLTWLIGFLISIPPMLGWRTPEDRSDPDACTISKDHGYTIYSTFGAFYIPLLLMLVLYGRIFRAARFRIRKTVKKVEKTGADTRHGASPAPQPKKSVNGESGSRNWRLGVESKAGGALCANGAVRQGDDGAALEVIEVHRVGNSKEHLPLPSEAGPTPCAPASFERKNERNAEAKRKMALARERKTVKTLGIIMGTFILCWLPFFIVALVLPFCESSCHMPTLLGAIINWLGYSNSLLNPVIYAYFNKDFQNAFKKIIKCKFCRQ

CYP2D6 = CYP2D6 (Homo sapiens, UniProt P10635); experiment: CYP inhibition assay in human liver microsomes; format: in vitro ADME; conditions: 10 μM
Sequence of CYP2D6 (P10635 whole entry): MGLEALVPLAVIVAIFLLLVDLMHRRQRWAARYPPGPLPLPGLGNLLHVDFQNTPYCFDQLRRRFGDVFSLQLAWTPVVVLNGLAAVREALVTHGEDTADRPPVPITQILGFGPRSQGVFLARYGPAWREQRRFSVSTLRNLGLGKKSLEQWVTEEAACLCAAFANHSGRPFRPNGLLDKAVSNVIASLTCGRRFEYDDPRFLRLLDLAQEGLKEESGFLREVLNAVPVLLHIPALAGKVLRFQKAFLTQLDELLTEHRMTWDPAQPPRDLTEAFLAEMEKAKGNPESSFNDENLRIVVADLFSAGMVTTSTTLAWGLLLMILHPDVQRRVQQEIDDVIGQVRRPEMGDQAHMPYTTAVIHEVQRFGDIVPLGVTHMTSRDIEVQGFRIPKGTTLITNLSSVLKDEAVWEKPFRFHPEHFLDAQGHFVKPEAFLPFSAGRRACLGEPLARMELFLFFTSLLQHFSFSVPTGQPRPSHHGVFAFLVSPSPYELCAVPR

CYP3A4 = CYP3A4 (Homo sapiens, UniProt P08684); experiment: CYP inhibition assay in human liver microsomes; format: in vitro ADME; conditions: 10 μM
Sequence of CYP3A4 (P08684 whole entry): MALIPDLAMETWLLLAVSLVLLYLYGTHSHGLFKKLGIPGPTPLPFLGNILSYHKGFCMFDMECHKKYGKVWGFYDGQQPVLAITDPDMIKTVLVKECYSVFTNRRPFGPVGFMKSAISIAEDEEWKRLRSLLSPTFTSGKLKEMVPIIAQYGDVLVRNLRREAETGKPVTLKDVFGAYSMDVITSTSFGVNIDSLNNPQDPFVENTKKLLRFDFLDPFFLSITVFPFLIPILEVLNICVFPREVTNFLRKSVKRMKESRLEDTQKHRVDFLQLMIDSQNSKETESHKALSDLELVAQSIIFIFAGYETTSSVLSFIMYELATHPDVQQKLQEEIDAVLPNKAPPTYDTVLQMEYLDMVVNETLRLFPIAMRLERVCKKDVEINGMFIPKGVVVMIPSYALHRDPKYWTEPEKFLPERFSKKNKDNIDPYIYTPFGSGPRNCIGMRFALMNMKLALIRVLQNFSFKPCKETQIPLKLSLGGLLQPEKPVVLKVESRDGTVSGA

dopamine D3 receptor = dopamine D3 receptor (Homo sapiens, UniProt P35462); experiment: NIMH PDSP CNS receptor radioligand binding
Sequence of dopamine D3 receptor (P35462 whole entry, species assumed): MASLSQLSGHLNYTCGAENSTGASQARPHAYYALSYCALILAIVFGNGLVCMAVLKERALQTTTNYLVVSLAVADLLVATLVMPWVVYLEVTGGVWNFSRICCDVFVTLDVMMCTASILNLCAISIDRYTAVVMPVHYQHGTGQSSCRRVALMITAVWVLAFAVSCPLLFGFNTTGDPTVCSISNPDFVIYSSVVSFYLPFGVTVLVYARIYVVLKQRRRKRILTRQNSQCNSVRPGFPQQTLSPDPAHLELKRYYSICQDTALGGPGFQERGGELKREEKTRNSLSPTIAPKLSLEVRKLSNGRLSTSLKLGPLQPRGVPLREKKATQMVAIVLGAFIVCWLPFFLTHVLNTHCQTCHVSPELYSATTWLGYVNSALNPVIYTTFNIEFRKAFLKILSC

[3] = cited from earlier work

T1 sequence (P29476 whole entry): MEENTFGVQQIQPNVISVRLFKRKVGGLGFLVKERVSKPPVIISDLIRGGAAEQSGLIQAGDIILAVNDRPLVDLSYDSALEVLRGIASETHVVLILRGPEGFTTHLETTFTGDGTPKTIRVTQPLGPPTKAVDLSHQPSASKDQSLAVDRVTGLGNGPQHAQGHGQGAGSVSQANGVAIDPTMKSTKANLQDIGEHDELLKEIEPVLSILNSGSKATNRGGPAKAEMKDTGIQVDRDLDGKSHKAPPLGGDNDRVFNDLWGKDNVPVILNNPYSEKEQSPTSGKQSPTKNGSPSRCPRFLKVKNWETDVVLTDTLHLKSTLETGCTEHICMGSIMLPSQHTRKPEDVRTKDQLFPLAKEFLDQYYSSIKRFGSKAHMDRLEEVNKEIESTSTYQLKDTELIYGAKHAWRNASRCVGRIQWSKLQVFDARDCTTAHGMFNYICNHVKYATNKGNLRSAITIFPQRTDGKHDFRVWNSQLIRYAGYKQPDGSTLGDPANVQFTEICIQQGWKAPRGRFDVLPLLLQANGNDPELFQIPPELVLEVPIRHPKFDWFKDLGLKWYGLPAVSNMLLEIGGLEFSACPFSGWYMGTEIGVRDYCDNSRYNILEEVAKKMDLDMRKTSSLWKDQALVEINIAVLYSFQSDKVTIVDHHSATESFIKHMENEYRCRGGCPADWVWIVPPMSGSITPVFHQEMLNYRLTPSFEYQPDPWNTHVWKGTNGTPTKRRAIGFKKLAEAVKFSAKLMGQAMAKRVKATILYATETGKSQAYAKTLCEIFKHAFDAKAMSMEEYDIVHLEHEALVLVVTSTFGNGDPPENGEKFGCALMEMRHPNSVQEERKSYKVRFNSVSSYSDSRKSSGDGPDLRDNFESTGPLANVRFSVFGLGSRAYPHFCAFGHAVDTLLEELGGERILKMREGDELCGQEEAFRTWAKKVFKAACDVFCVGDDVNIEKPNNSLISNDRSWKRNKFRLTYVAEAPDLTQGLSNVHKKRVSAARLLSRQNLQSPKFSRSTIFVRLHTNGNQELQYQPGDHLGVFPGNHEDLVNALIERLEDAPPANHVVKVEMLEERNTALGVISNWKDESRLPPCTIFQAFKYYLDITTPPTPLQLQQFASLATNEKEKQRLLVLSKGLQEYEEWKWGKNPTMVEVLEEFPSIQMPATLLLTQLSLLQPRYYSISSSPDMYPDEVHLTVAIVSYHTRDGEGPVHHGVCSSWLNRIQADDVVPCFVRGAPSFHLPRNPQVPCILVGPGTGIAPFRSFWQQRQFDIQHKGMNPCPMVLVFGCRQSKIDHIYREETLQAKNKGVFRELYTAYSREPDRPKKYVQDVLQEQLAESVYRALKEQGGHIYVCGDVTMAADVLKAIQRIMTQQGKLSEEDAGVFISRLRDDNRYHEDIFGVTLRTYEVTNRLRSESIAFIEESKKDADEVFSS
Sequence of CYP2C19 (P33261 whole entry): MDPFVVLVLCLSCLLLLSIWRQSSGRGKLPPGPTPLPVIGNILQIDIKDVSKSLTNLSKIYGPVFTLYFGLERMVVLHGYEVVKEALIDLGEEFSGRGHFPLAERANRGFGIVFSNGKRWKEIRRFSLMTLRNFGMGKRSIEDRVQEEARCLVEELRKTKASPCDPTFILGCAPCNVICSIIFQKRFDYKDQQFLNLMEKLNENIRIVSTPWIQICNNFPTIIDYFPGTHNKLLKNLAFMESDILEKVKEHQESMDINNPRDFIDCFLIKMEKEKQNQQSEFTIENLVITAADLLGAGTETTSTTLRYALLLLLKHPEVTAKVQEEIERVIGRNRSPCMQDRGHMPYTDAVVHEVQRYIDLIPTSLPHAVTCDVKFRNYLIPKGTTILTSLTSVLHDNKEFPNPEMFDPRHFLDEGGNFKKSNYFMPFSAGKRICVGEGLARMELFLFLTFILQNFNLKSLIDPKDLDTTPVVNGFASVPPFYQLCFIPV

SMILES: Fc1cccc(CCN2CCN(c3ccnc(-n4ccnc4)n3)CC2)c1 [Compound 4, 4-[4-(3-Fluorophenethyl)-1-piperazyl]-2-(1H-imidazol-1-yl)pyrimidine]
Ki (rat nNOS [1]): ~5000 nM

SMILES: Cl.Fc1cccc(CCNCCNc2ccnc(-n3ccnc3)n2)c1 [Compound 5, N^1-[2-(1H-Imidazol-1-yl)pyrimidin-4-yl]-N^2-(3-fluorophenethyl)ethane-1,2-diamine Trihydrochloride]
selectivity n/e (rat nNOS [2]): 100

decrease of CYP2C19 activity (CYP2C19): more than 70% | Ki (serotonin 5-HT2A): ≥ 500 nM | Ki (serotonin 5-HT1A): ≥ 500 nM | decrease of CYP2D6 activity (CYP2D6): more than 70% | decrease of CYP3A4 activity (CYP3A4): more than 70% | Ki (dopamine D3 receptor): ≥ 500 nM
SMILES: Cl.Fc1cccc(CCCNCCc2ccnc(-n3ccnc3)n2)c1 [Compound 9, N-2-[2-(1H-Imidazol-1-yl)pyrimidin-4-yl]ethyl-3-(3-fluorophenyl)propan-1-amine Dihydrochloride]

SMILES: c1c[nH]cn1 [imidazole]
pKa of conjugate acid [3]: 6.9
